Laboratory results taken from ChEMBL document CHEMBL5380793, “Structure-Activity Relationship of Novel Pyrimidine Derivatives with Potent Inhibitory Activities against Mycobacterium tuberculosis” (J Med Chem, 2023).
In brackets after ≈: the same amount, converted by molar mass.

Columns and labels:
[1] = system: Mycobacterium tuberculosis; assay: Antitubercular activity against marker free autoluminescent Mycobacterium tuberculosis H37Ra assessed as reduction in relative light unit measured once a day for 6 days; format: functional; conditions: 144 h, time 6 day
[2] = Cytotoxicity against human HepG2 cells assessed as inhibition of cell growth incubated for 48 hrs by MTT assay; format: toxicity, cell-based
[3] = Oral bioavailability in Sprague-Dawley rat at 15 mg/kg measured for 24 hrs by LC-MS analysis; format: ADME, organism-based; conditions: in vivo
[4] = target: T1, Dihydrofolate reductase (Mycobacterium tuberculosis) (UniProt P9WNX1); assay: Inhibition of Mycobacterium tuberculosis DHFR at 10 uM relative to control
T1 sequence (whole entry): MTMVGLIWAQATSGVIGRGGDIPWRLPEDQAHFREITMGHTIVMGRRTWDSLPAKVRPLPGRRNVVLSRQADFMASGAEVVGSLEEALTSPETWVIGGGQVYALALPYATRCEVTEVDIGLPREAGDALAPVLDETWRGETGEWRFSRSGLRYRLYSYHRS

Escherichia coli = assay: Antibacterial activity against Escherichia coli assessed as inhibition of bacterial growth; format: functional
Staphylococcus aureus = assay: Antibacterial activity against methicillin-resistant Staphylococcus aureus assessed as inhibition of bacterial growth; format: functional
[5] = system: Mycobacteroides abscessus; assay: Antibacterial activity against Mycobacterium abscessus assessed as inhibition of bacterial growth; format: functional
[6] = target: T1, Dihydrofolate reductase (Mycobacterium tuberculosis); assay: Inhibition of Mycobacterium tuberculosis DHFR at 100 uM relative to control
[7] = system: Mycolicibacterium smegmatis; assay: Antibacterial activity against Mycobacterium smegmatis assessed as inhibition of bacterial growth; format: functional
[8] = system: Mycobacterium tuberculosis; assay: Antibacterial activity against Mycobacterium tuberculosis H37Rv assessed as inhibition of bacterial growth incubated for 6 days by microplate alamar blue assay; format: functional; conditions: 144 h, time 6 day
[9] = system: Mycobacterium tuberculosis; assay: Antibacterial activity against Mycobacterium tuberculosis clinical isolate K16 assessed as inhibition of bacterial growth incubated for 6 days by microplate alamar blue assay; format: functional; conditions: K16, 144 h, time 6 day
[10] = system: Mycobacterium tuberculosis; assay: Antibacterial activity against Mycobacterium tuberculosis clinical isolate K12 assessed as inhibition of bacterial growth incubated for 6 days by microplate alamar blue assay; format: functional; conditions: K12, 144 h, time 6 day
[11] = system: Mycobacterium tuberculosis; assay: Antibacterial activity against Mycobacterium tuberculosis clinical isolate K5 assessed as inhibition of bacterial growth incubated for 6 days by microplate alamar blue assay; format: functional; conditions: K5, 144 h, time 6 day
[12] = system: Mycobacterium tuberculosis; assay: Antibacterial activity against Mycobacterium tuberculosis clinical isolate K4 assessed as inhibition of bacterial growth incubated for 6 days by microplate alamar blue assay; format: functional; conditions: K4, 144 h, time 6 day

With `Cc1cc(Nc2nc(-c3ccc(Cl)cc3)ncc2Cl)c(OC(C)C)cc1C1CCNCC1` the MIC [1] was 0.5 µg/mL (≈ 1.06 µM) and the IC50 at 48 h [2] was 2300 nM.

With `Cc1cc(Nc2nc(-c3ccc(C(C)C)cc3)ncc2Cl)c(OC(C)C)cc1C1CCNCC1` the MIC [1] was 1 µg/mL (≈ 2.09 µM) and the IC50 at 48 h [2] was 2200 nM.

`Cc1cc(Nc2nc(NC3CCCC3)ncc2Cl)c(OC(C)C)cc1C1CCNCC1` gave an MIC [1] of 1 µg/mL (≈ 2.25 µM) and an IC50 at 48 h [2] of 3800 nM.

With `Cc1cc(Nc2nc(Nc3cccc4ccccc34)ncc2Cl)c(OC(C)C)cc1C1CCNCC1` the MIC [1] was 2 µg/mL (≈ 3.98 µM) and the IC50 at 48 h [2] was 2200 nM.

With `COc1cccc(Nc2ncc(Cl)c(Nc3cc(C)c(C4CCNCC4)cc3OC(C)C)n2)c1` the MIC [1] was 1 µg/mL (≈ 2.07 µM) and the IC50 at 48 h [2] was 1300 nM.

Compound `Cc1cc(Nc2nc(Cl)ncc2Cl)c(OC(C)C)cc1C1CCNCC1` has an MIC [1] of 16 µg/mL (≈ 40.5 µM) and an IC50 at 48 h [2] of 16000 nM.

`Cc1cc2nc(-c3ccccc3)cc(Nc3cc(C)c(C4CCNCC4)cc3OC(C)C)n2n1` gave an MIC [1] of 8 µg/mL (≈ 17.6 µM) and an IC50 at 48 h [2] of 4700 nM.

`Cc1cc(Nc2ncc(Cl)c(Nc3cccc4ccccc34)n2)c(OC(C)C)cc1C1CCNCC1` gave a bioavailability [3] of 17.5%, an inhibition [4] of 3.1% and an MIC (Escherichia coli) of over 16 µg/mL. It also gave an MIC (Staphylococcus aureus) of 8 µg/mL (≈ 15.9 µM), an MIC [5] of 16 µg/mL (≈ 31.9 µM) and an inhibition [6] of 4.4%. It also gave an MIC [7] of 16 µg/mL (≈ 31.9 µM).

In the case of `Cc1cc(Nc2nc(-c3ccccc3)nc3ccccc23)c(OC(C)C)cc1C1CCNCC1`, the MIC [1] is reported as 2 µg/mL (≈ 4.42 µM) and the IC50 at 48 h [2] is reported as 2800 nM.

`CCc1ncc(Cl)c(Nc2cc(C)c(C3CCNCC3)cc2OC(C)C)n1` gave an MIC [1] of 8 µg/mL (≈ 20.6 µM) and an IC50 at 48 h [2] of 8000 nM.

In the case of `Cc1cc(Nc2nc(Nc3cccc(F)c3)ncc2Cl)c(OC(C)C)cc1C1CCNCC1`, the MIC [1] is reported as 0.5 µg/mL (≈ 1.06 µM) and the IC50 at 48 h [2] is reported as 1900 nM.

For `Cc1cc(Nc2nc(NC3CC3)ncc2Cl)c(OC(C)C)cc1C1CCNCC1`, the MIC [1] was 4 µg/mL (≈ 9.62 µM) and the IC50 at 48 h [2] was 7600 nM.

For `COc1cc(N2CCNCC2)ccc1Nc1nc(-c2ccccc2)ncc1Cl`, the MIC [1] was 4 µg/mL (≈ 10.1 µM) and the IC50 at 48 h [2] was 2700 nM.

For `CCC(C)Oc1cc(N2CCNCC2)ccc1Nc1nc(-c2ccccc2)ncc1Cl` (stereo unspecified), the MIC [1] was 1 µg/mL (≈ 2.28 µM) and the IC50 at 48 h [2] was 2300 nM.

For `Clc1cnc(-c2ccccc2)nc1Nc1ccc(N2CCNCC2)cc1OC1CCCC1`, the MIC [1] was 1 µg/mL (≈ 2.22 µM) and the IC50 at 48 h [2] was 2700 nM.

Compound `Cc1cc(Nc2nc(-c3ccc4c(c3)OCO4)ncc2Cl)c(OC(C)C)cc1C1CCNCC1` has an MIC [1] of 1 µg/mL (≈ 2.08 µM) and an IC50 at 48 h [2] of 1000 nM.

For `Cc1ccc(-c2ncc(Cl)c(Nc3cc(C)c(C4CCNCC4)cc3OC(C)C)n2)cc1`, the MIC [1] was 1 µg/mL (≈ 2.22 µM) and the IC50 at 48 h [2] was 2500 nM.

For `Cc1cc(Nc2cc(-c3ccccc3)nc3ccnn23)c(OC(C)C)cc1C1CCNCC1`, the MIC [1] was 4 µg/mL (≈ 9.06 µM) and the IC50 at 48 h [2] was 4100 nM.

For `Cc1cc(Nc2cc(C)c(C3CCNCC3)cc2OC(C)C)nc(-c2ccccc2)n1`, the MIC [1] was 4 µg/mL (≈ 9.6 µM) and the IC50 at 48 h [2] was 1900 nM.

With `Cc1cc(NC(=O)Nc2ccc(F)cc2)c(OC(C)C)cc1C1CCNCC1` the MIC [1] was over 64 µg/mL and the IC50 at 48 h [2] was over 20000 nM.

`Cc1cc(Nc2nc(-c3ccc4c(c3)OCCO4)ncc2Cl)c(OC(C)C)cc1C1CCNCC1` showed an MIC [1] of 1 µg/mL (≈ 2.02 µM) and an IC50 at 48 h [2] of 1000 nM.

Work on `CO[C@H]1/C=C/O[C@@]2(C)Oc3c(C)c(O)c4c(O)c(c(/C=N/N5CCN(C)CC5)c(O)c4c3C2=O)NC(=O)/C(C)=C\C=C\[C@H](C)[C@H](O)[C@@H](C)[C@@H](O)[C@@H](C)[C@H](OC(C)=O)[C@@H]1C` [RIFAMPIN] yielded an MIC [8] of under 1 µg/mL, an MIC [9] of over 10 µg/mL and an MIC [10] of over 10 µg/mL. It also gave an MIC [11] of over 50 µg/mL and an MIC [12] of over 50 µg/mL.

`CCCc1ccc(-c2ncc(Cl)c(Nc3cc(C)c(C4CCNCC4)cc3OC(C)C)n2)cc1` gave an MIC [1] of 1 µg/mL (≈ 2.09 µM) and an IC50 at 48 h [2] of 2200 nM.

`Cc1cc(Nc2nc(-c3ccc(C(C)(C)C)cc3)ncc2Cl)c(OC(C)C)cc1C1CCNCC1` gave an MIC [1] of 1 µg/mL (≈ 2.03 µM) and an IC50 at 48 h [2] of 2300 nM.

`Cc1cc(Nc2nc(-c3cccnc3)ncc2Cl)c(OC(C)C)cc1C1CCNCC1` gave an MIC [1] of 2 µg/mL (≈ 4.57 µM) and an IC50 at 48 h [2] of 1700 nM.

`Cc1cc(Nc2nc(-c3ccccc3CO)ncc2Cl)c(OC(C)C)cc1C1CCNCC1` showed an MIC [1] of 4 µg/mL (≈ 8.57 µM) and an IC50 at 48 h [2] of 2000 nM.

With `Cc1cc(C)cc(-c2ncc(Cl)c(Nc3cc(C)c(C4CCNCC4)cc3OC(C)C)n2)c1` the MIC [1] was 1 µg/mL (≈ 2.15 µM) and the IC50 at 48 h [2] was 2900 nM.

`Cc1cc(Nc2nc(-c3cccc4ccccc34)ncc2Cl)c(OC(C)C)cc1C1CCNCC1` gave an MIC [1] of 0.5 µg/mL (≈ 1.03 µM) and an IC50 at 48 h [2] of 500 nM.

Compound `Cc1cc(Nc2nc(-c3cccc(O)c3)ncc2Cl)c(OC(C)C)cc1C1CCNCC1` has an MIC [1] of 2 µg/mL (≈ 4.42 µM) and an IC50 at 48 h [2] of 1300 nM.
